Several values for one entry are separate records, joined by “and”; a condition that tells them apart may be missing. Identical values can stand only once.
Legend:
HC3X = assay: Repeated-exposure DILI training compounds, resazurin conversion, HC3X; details: for resazurin conversion (Supplementary Figure 7D): HC3X AAGLY D40, replicates, listed as Triglitazone
Summary of the method: (§1)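 Viability by resazurin conversion, correlated with Cmax, was assessed after drug exposure in 384-well cultures of differentiated PSCs and of HepG2 (40,000 cells/well). Dosing began 8 h post-attachment, with untreated wells as negative control.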

HepG2 = assay: Repeated-exposure DILI training compounds, resazurin conversion, HepG2; details: replicates, listed as Triglitazone
Summary of the method: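 PSC-derived cells differentiated in 384-well format, plus HepG2 seeded at 40,000 cells/well, received drugs after 8 h of attachment; untreated wells served as negative controls. Viability was measured by resazurin conversion and related to therapeutic Cmax values.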

HC6X = assay: Repeated-exposure DILI training compounds, resazurin conversion, HC6X; details: replicates, listed as Triglitazone
Summary of the method: as §1

HLC = assay: Repeated-exposure DILI training compounds, resazurin conversion, HLC; details: replicates, listed as Triglitazone
Summary of the method: as §1

Compound: Cc1c(C)c2c(c(C)c1O)CCC(C)(COc1ccc(CC3SC(=O)NC3=O)cc1)O2 (centres unmarked) [troglitazone]
- resazurin conversion (Supplementary Figure 7D) (HC3X; 3 uM): 100.4 and 118.6 and 117.6 and 139.7 and 113 and 95.6
- resazurin conversion (Supplementary Figure 7D) (HC3X; 5 uM): 108.1 and 113 and 110 and 124 and 122.3 and 125.6
- resazurin conversion (Supplementary Figure 7D) (HC3X; 10 uM): 64.3 and 64.1 and 94.3 and 59.1 and 78.4 and 71.8
- resazurin conversion (Supplementary Figure 7D) (HC3X; 30 uM): 7.7 (3×) and 7.6 (2×) and 7.8
- resazurin conversion (Supplementary Figure 7D) (HC3X; 50 uM): 7.8 (4×) and 7.7 and 7.9
- resazurin conversion (Supplementary Figure 7D) (HC3X; 100 uM): 7.7 and 7.9 (2×) and 8 (2×) and 7.8
- resazurin conversion (Supplementary Figure 7D) (HC3X; 300 uM): 8.6 (2×) and 8.5 and 8.4 and 8.7 and 8.3
- resazurin conversion (Supplementary Figure 7D) (HC3X; 600 uM): 8.6 and 9 and 8.5 and 8.7 and 8.8 and 9.1
- resazurin conversion (Supplementary Figure 7D) (HC3X; 1200 uM): 8.5 and 8.9 and 8.6 (2×) and 8.8 and 9
- IC50/Cmax (HC3X; human): 1.6
- resazurin conversion (Supplementary Figure 7D) (HepG2; HepG2 AAGLY D30, 3 uM): 98.3 and 94.5 and 92
- resazurin conversion (Supplementary Figure 7D) (HepG2; HepG2 AAGLY D30, 5 uM): 68.5 and 110.9 and 79 and 93.8 and 74.1 and 107
- resazurin conversion (Supplementary Figure 7D) (HepG2; HepG2 AAGLY D30, 10 uM): 74 and 89.9 and 83.3 and 84.8 and 74.9 and 104.6
- resazurin conversion (Supplementary Figure 7D) (HepG2; HepG2 AAGLY D30, 30 uM): 79.1 and 100.2 and 93 and 115.8 and 83.4 and 116.8
- resazurin conversion (Supplementary Figure 7D) (HepG2; HepG2 AAGLY D30, 50 uM): 83.1 and 117.7 and 95.2 and 107.4 and 94.4 and 118.1
- resazurin conversion (Supplementary Figure 7D) (HepG2; HepG2 AAGLY D30, 100 uM): 64.7 and 70 and 66.6 and 77.3 and 64.4 and 73.3
- resazurin conversion (Supplementary Figure 7D) (HepG2; HepG2 AAGLY D30, 300 uM): 29.5 and 32.5 and 30.3 and 31.2 and 30.4 and 32
- resazurin conversion (Supplementary Figure 7D) (HepG2; HepG2 AAGLY D30, 600 uM): 29.5 and 33.9 and 30.8 and 32.7 and 30.9 and 34.9
- resazurin conversion (Supplementary Figure 7D) (HepG2; HepG2 AAGLY D30, 1200 uM): 31 and 33.3 and 30.9 and 31.3 and 30.2 and 34.1
- resazurin conversion (Supplementary Figure 7D) (HepG2; HepG2 CTL D7, 3 uM): 96.5
- resazurin conversion (Supplementary Figure 7D) (HepG2; HepG2 CTL D7, 5 uM): 108.7 and 103 and 108 and 101.8 and 110.4 and 108.6
- resazurin conversion (Supplementary Figure 7D) (HepG2; HepG2 CTL D7, 10 uM): 100.5 and 91 and 96 and 94.6 and 100.7 and 102
- resazurin conversion (Supplementary Figure 7D) (HepG2; HepG2 CTL D7, 30 uM): 107.7 and 102.1 and 104.6 and 106.5 and 111.7 and 103.3
- resazurin conversion (Supplementary Figure 7D) (HepG2; HepG2 CTL D7, 50 uM): 106.3 and 99.2 and 103.6 and 101.1 and 106.7 and 102.4
- resazurin conversion (Supplementary Figure 7D) (HepG2; HepG2 CTL D7, 100 uM): 21.4 and 9.6 and 9.2 and 17 and 16.3 and 15.4
- resazurin conversion (Supplementary Figure 7D) (HepG2; HepG2 CTL D7, 300 uM): 8.5 (3×) and 8.1 and 8.3 and 8.2
- resazurin conversion (Supplementary Figure 7D) (HepG2; HepG2 CTL D7, 600 uM): 8.3 and 8 (2×) and 8.4 and 7.9 (2×)
- resazurin conversion (Supplementary Figure 7D) (HepG2; HepG2 CTL D7, 1200 uM): 9.4 and 9.5 and 9.7 and 9.2 and 9.3 and 9.1
- resazurin conversion (Supplementary Figure 7D) (HC6X; HC6X AAGLY D40, 3 uM): 67.6 and 80.5 and 115.9 and 110.8
- resazurin conversion (Supplementary Figure 7D) (HC6X; HC6X AAGLY D40, 5 uM): 97.5 and 124.6 and 75.2 and 88 and 91.2 and 78.9
- resazurin conversion (Supplementary Figure 7D) (HC6X; HC6X AAGLY D40, 10 uM): 28.6 and 26.8 and 51 and 28.8 and 31.8 and 23.3
- resazurin conversion (Supplementary Figure 7D) (HC6X; HC6X AAGLY D40, 30 uM): 17.6 and 19.6 and 21.9 and 19.3 and 17.4 and 18.4
- resazurin conversion (Supplementary Figure 7D) (HC6X; HC6X AAGLY D40, 50 uM): 18.5 and 22.2 and 22.6 and 19.7 and 17.5 and 18.3
- resazurin conversion (Supplementary Figure 7D) (HC6X; HC6X AAGLY D40, 100 uM): 17.7 (2×) and 19.3 and 19.5 and 17.5 and 18.3
- resazurin conversion (Supplementary Figure 7D) (HC6X; HC6X AAGLY D40, 300 uM): 18.9 and 19.1 and 19.4 (2×) and 19.9 and 18.8
- resazurin conversion (Supplementary Figure 7D) (HC6X; HC6X AAGLY D40, 600 uM): 20.5 and 21.3 and 23.4 and 22.4 (2×) and 23.3
- resazurin conversion (Supplementary Figure 7D) (HC6X; HC6X AAGLY D40, 1200 uM): 19.6 and 19.4 and 20.1 and 19.9 and 18.6 and 18.9
- resazurin conversion (Supplementary Figure 7D) (HC6X; HC6X AAGLY D40 Remove dox, 5 uM): 197.5 and 139.5 and 221.6 and 148.2 and 134.8 and 149.8
- resazurin conversion (Supplementary Figure 7D) (HC6X; HC6X AAGLY D40 Remove dox, 10 uM): 133 and 100.2 and 218.5 and 104.9 and 119 and 93.7
- resazurin conversion (Supplementary Figure 7D) (HC6X; HC6X AAGLY D40 Remove dox, 30 uM): 24.4 and 26.5 and 25.9 (2×) and 27.1 and 24.9
- resazurin conversion (Supplementary Figure 7D) (HC6X; HC6X AAGLY D40 Remove dox, 50 uM): 23.5 (2×) and 23.1 and 23.9 and 23.4 and 23.3
- resazurin conversion (Supplementary Figure 7D) (HC6X; HC6X AAGLY D40 Remove dox, 100 uM): 24.4 and 24.5 and 24 and 23.7 and 23.5 and 24.2
- resazurin conversion (Supplementary Figure 7D) (HC6X; HC6X AAGLY D40 Remove dox, 300 uM): 25.6 and 24.8 (2×) and 25 (2×) and 24.6
- resazurin conversion (Supplementary Figure 7D) (HC6X; HC6X AAGLY D40 Remove dox, 600 uM): 26.9 and 26.7 and 26.1 (2×) and 25.7 and 26.3
- resazurin conversion (Supplementary Figure 7D) (HC6X; HC6X AAGLY D40 Remove dox, 1200 uM): 28.5 (2×) and 27.6 and 27.4 and 27.9 and 28.4
- resazurin conversion (Supplementary Figure 7D) (HLC; HLC AAGLY D40, 5 uM): 153.5 and 121.4 and 146 and 101.6 and 123.2 and 125.5
- resazurin conversion (Supplementary Figure 7D) (HLC; HLC AAGLY D40, 10 uM): 135.4 and 92.9 and 151 and 74.5 and 125.5 and 149.7
- resazurin conversion (Supplementary Figure 7D) (HLC; HLC AAGLY D40, 30 uM): 16.5 and 14.5 and 14 and 11.9 and 15.8 and 12.7
- resazurin conversion (Supplementary Figure 7D) (HLC; HLC AAGLY D40, 50 uM): 11.8 (3×) and 11.4 (2×) and 11.7
- resazurin conversion (Supplementary Figure 7D) (HLC; HLC AAGLY D40, 100 uM): 11.9 (2×) and 12.3 and 12.2 and 12.1 (2×)
- resazurin conversion (Supplementary Figure 7D) (HLC; HLC AAGLY D40, 300 uM): 12.4 and 12.8 (2×) and 12.6 (2×) and 12.7
- resazurin conversion (Supplementary Figure 7D) (HLC; HLC AAGLY D40, 600 uM): 13.8 (2×) and 13.7 and 13.2 and 13.4 and 13.6
- resazurin conversion (Supplementary Figure 7D) (HLC; HLC AAGLY D40, 1200 uM): 14.9 and 14.8 and 14.3 and 15 and 14.7 and 14.5
- resazurin conversion (Supplementary Figure 7D) (HLC; HLC LDM D40, 3 uM): 124.9 and 86.8 and 81.1 and 83.4
- resazurin conversion (Supplementary Figure 7D) (HLC; HLC LDM D40, 5 uM): 112.5 and 109.2 and 104.5 and 65.4 and 87.8 and 121.6
- resazurin conversion (Supplementary Figure 7D) (HLC; HLC LDM D40, 10 uM): 119.2 and 88.2 and 119.3 and 84.6 and 119 and 129.3
- resazurin conversion (Supplementary Figure 7D) (HLC; HLC LDM D40, 30 uM): 64.9 and 19.9 and 24.5 and 26.5 and 51.6 and 125
- resazurin conversion (Supplementary Figure 7D) (HLC; HLC LDM D40, 50 uM): 9.4 and 9.5 and 9.6 and 12.8 and 134 and 114.9
- resazurin conversion (Supplementary Figure 7D) (HLC; HLC LDM D40, 100 uM): 9.6 and 9.9 and 9.7 and 9.4 and 10.4 and 10.1
- resazurin conversion (Supplementary Figure 7D) (HLC; HLC LDM D40, 300 uM): 10.1 (2×) and 10.3 and 9.6 and 10 and 10.2
- resazurin conversion (Supplementary Figure 7D) (HLC; HLC LDM D40, 600 uM): 10.4 and 10.5 and 10.2 (2×) and 10.8 and 11.3
- resazurin conversion (Supplementary Figure 7D) (HLC; HLC LDM D40, 1200 uM): 11.2 (3×) and 11.3 and 11.1 and 11.5

Source: article PMC7069944, “Amino acid levels determine metabolism and CYP450 function of hepatocytes and hepatoma cell lines” (Nature Communications, 2020)
